Assay results taken from publication PMC8427973, “Regulation of the HTRA2 Protease Activity by an Inhibitory Antibody-Derived Peptide Ligand and the Influence on HTRA2-Specific Protein Interaction Networks in Retinal Tissues” (Biomedicines, 2021).

System: recombinant 6xHis-tag HTRA2 and its protein interaction partners in homogenized porcine retina
Assay: Co-immunoprecipitation (Co-IP) of HTRA2 protein interaction partners, quantitative LC-MS/MS (iBAQ, volcano plot vs CTRL beads)
Parameters: species or system house swine (Sus scrofa)
Conditions: 2 µg HTRA2 + 10 µg compound, n = 3, vs CTRL beads
Protocol: The retina extraction and homogenization were performed as already described in previous publications. The use of animal by-products of house swine for scientific research purposes was approved by the Kreisverwaltung Mainz-Bingen in Germany (Identification Code: DE 07 315 0006 21, approved on 13 January 2014). In brief, retinal tissues were extracted from freshly removed porcine eye bulbs (house swine, Sus scrofa domestica Linnaeus, n = 30) provided by the local slaughterhouses (Landmetzgerei Harth, Stadecken-Elsheim, Germany). Afterwards, the retinal tissues were homogenized in 2 mL screw cap microtubes filled with 1.4/2.8 mm ceramic beads and 1 mL Tissue Protein Extraction Reagent (T-PER, Thermo Fisher Scientific, Rockford, IL, USA) using a Percellys® 24 homogenizer (VWR International GmbH, Darmstadt, Germany). The homogenized retinal samples were then centrifuged at 14,000× g for 15 min at 4 °C. The protein-containing supernatant was exchanged in a 100 µL phosphate-buffered saline (PBS) using a 3 kDa Amicon® filtration unit (Millipore, Billerica, MA, USA) and, prior to this, was extensively washed in order to completely remove traces of the T-PER buffer. Afterwards, the samples were pooled and the protein concentration was determined using a Pierce Bicinchoninic Acid (BCA) Protein Assay Kit (Thermo Fisher Scientific, Rockford, IL, USA) according to the manufacturer’s protocol, which provided 5 mg aliquots for further analysis.
The recombinant protein HTRA2 with a C-terminal 6xHis-tag motif (Novoprotein Scientific INC., Summit, NJ, USA) and 40 μL HisPurTM Ni-NTA magnetic beads (Thermo Fisher Scientific, Rockford, IL, USA) were spiked into 5 mg homogenized porcine retina. The experiment comprised of four groups: control homogenate (CTRL group), homogenate with 2 μg recombinant HTRA2 (HTRA2 group), homogenate with 2 μg recombinant HTRA2 and 10 μg UCF-101 (UCF-101 group), and homogenate with 2 μg recombinant HTRA2 and 10 μg synthetic CDR peptide (CDR group). The Co-IP of the recombinant HTRA2 and the enrichment of the respective interaction partners was performed with three independent biological replicates for each group (CTRL, HTRA2, UCF-101, and CDR group). After incubation at 4 °C overnight, the 6xHis-tagged protein HTRA2 with the bounded protein interaction partners (co-immunoprecipitation) was isolated with the previously added HisPurTM Ni-NTA magnetic beads (Thermo Fisher Scientific, Rockford, IL, USA) using a magnetic stand. Each bead group was washed twice with 400 μL PBS and the bounded HTRA2 including the protein interaction partners were eluted by pH shift. The protein concentration of each eluate fraction was determined as described above. Afterwards, 50 μg of each eluate fraction was evaporated using a speed vacuum concentrator (SpeedVac) (Eppendorf, Hamburg, Germany) for 45 min at 30 °C and was stored afterwards at −20 °C.
The protein eluate fractions of each group (50 μg; n = 3 biological replicates per group) were separated by 1D SDS PAGE on 10-well NuPAGE® 12% Bis-Tris gels using NuPAGE™ MOPS SDS Running Buffer 20X (Thermo Fisher Scientific, Rockford, IL, USA). The 1D SDS PAGE was performed with the XCell SureLock^TM Mini-Cell Electrophoresis System (Thermo Fisher Scientific, Rockford, IL, USA) under denatured and reduced conditions, as already described in previous publications. The protein separation was performed for 2 h at 4 °C using 150 V, and then the gels were stained with the Novex Colloidal Blue Staining Kit (Thermo Fisher Scientific, Rockford, IL, USA) according to the manufacturer’s protocol. The next day, the gels were destained overnight and scanned using a DGP-9042 scanner (Brother Industries, Nagoya, Japan) at 600 dpi. In-gel trypsin digestion was performed as already described in previous publications. In brief, each protein lane was divided into 17 slices and was subsequently cut into small pieces. […]

O=C1C(=Cc2ccc(-c3ccccc3[N+](=O)[O-])o2)C(=O)N(c2ccccc2)C(=S)N1c1ccccc1 [UCF-101, reference compound]
FGF2 (Fibroblast growth factor 2) as significant interaction partner of HTRA2 (HTRA2 alone: -): √ (Proteins fulfilled filtering criteria (p < 0.01; log2 fold change > 1.5)) | FTH1 (Ferritin heavy chain) as significant interaction partner of HTRA2 (HTRA2 alone: -): √ (Proteins fulfilled filtering criteria (p < 0.01; log2 fold change > 1.5)) | GTF2F2 (General transcription factor IIF subunit 2) as significant interaction partner of HTRA2 (HTRA2 alone: -): √ (Proteins fulfilled filtering criteria (p < 0.01; log2 fold change > 1.5)) | NAPG (Gamma-soluble NSF attachment protein) as significant interaction partner of HTRA2 (HTRA2 alone: -): - (Proteins failed to fulfill the filtering criteria (p > 0.01; log2 fold change < 1.5)) | PDZD11 (PDZ domain-containing protein 11) as significant interaction partner of HTRA2 (HTRA2 alone: -): √ (Proteins fulfilled filtering criteria (p < 0.01; log2 fold change > 1.5)) | PGRMC1 (Membrane-associated progesterone receptor component 1) as significant interaction partner of HTRA2 (HTRA2 alone: -): √ (Proteins fulfilled filtering criteria (p < 0.01; log2 fold change > 1.5)) | PLRG1 (Pleiotropic regulator 1) as significant interaction partner of HTRA2 (HTRA2 alone: -): - (Proteins failed to fulfill the filtering criteria (p > 0.01; log2 fold change < 1.5)) | POLR2E (DNA-directed RNA polymerases I, II, and III subunit RPABC1) as significant interaction partner of HTRA2 (HTRA2 alone: -): - (Proteins failed to fulfill the filtering criteria (p > 0.01; log2 fold change < 1.5)) | PPA1 (Inorganic pyrophosphatase) as significant interaction partner of HTRA2 (HTRA2 alone: -): √ (Proteins fulfilled filtering criteria (p < 0.01; log2 fold change > 1.5)) | SFRP1 (Secreted frizzled-related protein 1) as significant interaction partner of HTRA2 (HTRA2 alone: -): - (Proteins failed to fulfill the filtering criteria (p > 0.01; log2 fold change < 1.5)) | TUBA1C (Tubulin alpha-1C chain) as significant interaction partner of HTRA2 (HTRA2 alone: -): - (Proteins failed to fulfill the filtering criteria (p > 0.01; log2 fold change < 1.5)) | UBE2N (Ubiquitin-conjugating enzyme E2 N) as significant interaction partner of HTRA2 (HTRA2 alone: -): √ (Proteins fulfilled filtering criteria (p < 0.01; log2 fold change > 1.5)) | CDC42 (Cell division control protein 42 homolog) as significant interaction partner of HTRA2 (HTRA2 alone: n.d.): √ (Proteins fulfilled filtering criteria (p < 0.01; log2 fold change > 1.5)) | COPE (Coatomer subunit epsilon) as significant interaction partner of HTRA2 (HTRA2 alone: n.d.): √ (Proteins fulfilled filtering criteria (p < 0.01; log2 fold change > 1.5)) | MRPL2 (39S ribosomal protein L2, mitochondrial) as significant interaction partner of HTRA2 (HTRA2 alone: n.d.): - (Proteins failed to fulfill the filtering criteria (p > 0.01; log2 fold change < 1.5)) | SNX3 (Sorting nexin-3) as significant interaction partner of HTRA2 (HTRA2 alone: n.d.): √ (Proteins fulfilled filtering criteria (p < 0.01; log2 fold change > 1.5)) | SOWAHA (Ankyrin repeat domain-containing protein SOWAHA) as significant interaction partner of HTRA2 (HTRA2 alone: n.d.): - (Proteins failed to fulfill the filtering criteria (p > 0.01; log2 fold change < 1.5)) | TIMM13 (Mitochondrial import inner membrane translocase subunit Tim13) as significant interaction partner of HTRA2 (HTRA2 alone: n.d.): √ (Proteins fulfilled filtering criteria (p < 0.01; log2 fold change > 1.5)) | TUBB8 (Tubulin beta-8 chain) as significant interaction partner of HTRA2 (HTRA2 alone: n.d.): - (Proteins failed to fulfill the filtering criteria (p > 0.01; log2 fold change < 1.5)) | ANK2 (Ankyrin-2) as significant interaction partner of HTRA2 (HTRA2 alone: √): - (Proteins failed to fulfill the filtering criteria (p > 0.01; log2 fold change < 1.5)) | AP2A1 (AP-2 complex subunit alpha-1) as significant interaction partner of HTRA2 (HTRA2 alone: √): - (Proteins failed to fulfill the filtering criteria (p > 0.01; log2 fold change < 1.5)) | AP3D1 (AP-3 complex subunit delta-1) as significant interaction partner of HTRA2 (HTRA2 alone: √): - (Proteins failed to fulfill the filtering criteria (p > 0.01; log2 fold change < 1.5)) | AUH (Methylglutaconyl-CoA hydratase, mitochondrial) as significant interaction partner of HTRA2 (HTRA2 alone: √): - (Proteins failed to fulfill the filtering criteria (p > 0.01; log2 fold change < 1.5)) | CS (Citrate synthase, mitochondrial) as significant interaction partner of HTRA2 (HTRA2 alone: √): - (Proteins failed to fulfill the filtering criteria (p > 0.01; log2 fold change < 1.5)) | CSTB (Cystatin-B) as significant interaction partner of HTRA2 (HTRA2 alone: √): - (Proteins failed to fulfill the filtering criteria (p > 0.01; log2 fold change < 1.5)) | DNAJA3 (DnaJ homolog subfamily A member 3, mitochondrial) as significant interaction partner of HTRA2 (HTRA2 alone: √): - (Proteins failed to fulfill the filtering criteria (p > 0.01; log2 fold change < 1.5)) | DTD1 (D-aminoacyl-tRNA deacylase 1) as significant interaction partner of HTRA2 (HTRA2 alone: √): - (Proteins failed to fulfill the filtering criteria (p > 0.01; log2 fold change < 1.5)) | EIF2S3 (Eukaryotic translation initiation factor 2 subunit 3) as significant interaction partner of HTRA2 (HTRA2 alone: √): - (Proteins failed to fulfill the filtering criteria (p > 0.01; log2 fold change < 1.5)) | FAM30A (Putative uncharacterized protein FAM30A) as significant interaction partner of HTRA2 (HTRA2 alone: √): - (Proteins failed to fulfill the filtering criteria (p > 0.01; log2 fold change < 1.5)) | FLNA (Filamin-A) as significant interaction partner of HTRA2 (HTRA2 alone: √): - (Proteins failed to fulfill the filtering criteria (p > 0.01; log2 fold change < 1.5)) | GDI1 (Rab GDP dissociation inhibitor alpha) as significant interaction partner of HTRA2 (HTRA2 alone: √): - (Proteins failed to fulfill the filtering criteria (p > 0.01; log2 fold change < 1.5)) | GLO1 (Lactoylglutathione lyase) as significant interaction partner of HTRA2 (HTRA2 alone: √): - (Proteins failed to fulfill the filtering criteria (p > 0.01; log2 fold change < 1.5)) | GNL1 (Guanine nucleotide-binding protein-like 1) as significant interaction partner of HTRA2 (HTRA2 alone: √): - (Proteins failed to fulfill the filtering criteria (p > 0.01; log2 fold change < 1.5)) | HAGH (Hydroxyacylglutathione hydrolase, mitochondrial) as significant interaction partner of HTRA2 (HTRA2 alone: √): - (Proteins failed to fulfill the filtering criteria (p > 0.01; log2 fold change < 1.5)) | HTRA2 (Serine protease HTRA2, mitochondrial; target protein) enriched (HTRA2 alone: √): √ (Proteins fulfilled filtering criteria (p < 0.01; log2 fold change > 1.5)) | HYOU1 (Hypoxia up-regulated protein 1) as significant interaction partner of HTRA2 (HTRA2 alone: √): - (Proteins failed to fulfill the filtering criteria (p > 0.01; log2 fold change < 1.5)) | ME2 (NAD-dependent malic enzyme, mitochondrial) as significant interaction partner of HTRA2 (HTRA2 alone: √): - (Proteins failed to fulfill the filtering criteria (p > 0.01; log2 fold change < 1.5)) | NCKAP1 (Nck-associated protein 1) as significant interaction partner of HTRA2 (HTRA2 alone: √): - (Proteins failed to fulfill the filtering criteria (p > 0.01; log2 fold change < 1.5)) | PACS1 (Phosphofurin acidic cluster sorting protein 1) as significant interaction partner of HTRA2 (HTRA2 alone: √): - (Proteins failed to fulfill the filtering criteria (p > 0.01; log2 fold change < 1.5)) | POTEE (POTE ankyrin domain family member E) as significant interaction partner of HTRA2 (HTRA2 alone: √): - (Proteins failed to fulfill the filtering criteria (p > 0.01; log2 fold change < 1.5)) | PTGES3 (Prostaglandin E synthase 3) as significant interaction partner of HTRA2 (HTRA2 alone: √): √ (Proteins fulfilled filtering criteria (p < 0.01; log2 fold change > 1.5)) | SHMT2 (Serine hydroxymethyltransferase, mitochondrial) as significant interaction partner of HTRA2 (HTRA2 alone: √): - (Proteins failed to fulfill the filtering criteria (p > 0.01; log2 fold change < 1.5)) | SPTBN1 (Spectrin beta chain, non-erythrocytic 1) as significant interaction partner of HTRA2 (HTRA2 alone: √): - (Proteins failed to fulfill the filtering criteria (p > 0.01; log2 fold change < 1.5)) | UBE2V1 (Ubiquitin-conjugating enzyme E2 variant 1) as significant interaction partner of HTRA2 (HTRA2 alone: √): √ (Proteins fulfilled filtering criteria (p < 0.01; log2 fold change > 1.5))
